Test results as given in patent US20260226068A1, “IMIDAZOTRIAZINE IL-17A MODULATORS AND USES THEREOF” (DICE ALPHA, INC., priority 2023, published 2026).
pIC50: −log10 of the molar value.

How the values were obtained:
IL-17A/A = molecular target: T1, IL-17A/A (Homo sapiens, UniProt Q16552); experiment: IL-17A/A HEK-Blue cell assay (SEAP reporter); type: cell-based; conditions: HEK-Blue IL-17A reporter cells, IL17A/A 5 ng/mL, 20 hours, SEAP read at A630; read-out: HEK-Blue IL17AA (IC50 for IL-17A/A inhibition)
T1 construct: purchased Genscript Z03228
T1 sequence (Q16552 24-155): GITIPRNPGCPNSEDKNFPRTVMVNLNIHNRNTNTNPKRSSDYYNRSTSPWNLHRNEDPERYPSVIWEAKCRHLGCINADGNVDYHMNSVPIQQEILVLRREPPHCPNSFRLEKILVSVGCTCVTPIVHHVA
Description: (§1) The HEK-Blue IL-17A reporter cell line (Fisher #NC 1408637) was used for cell-based IL-17A/A inhibition assays. Cells were grown and prepared for assays according to the manufacturer's instructions. This cell line consists of HEK 293 cells that were designed to expressed IL-17RA, IL-17RC, and the Act1 adapter molecule, the combination of which, when stimulated by IL-17A/A or IL17A/F activates a […] promoter and drives expression of the recombinant Secreted Alkaline Phosphatase (SEAP) gene. Media from the cells is then added to a development reagent (Quanti-Blue Substrate, Fisher #NC971 1613), and read at A630.
(§2) Compounds were dispensed in DMSO to an empty clear 384-well tissue culture plate in a titration ranging from 10 μM to 27 pM, with DMSO added to every well to a final concentration of […]. Cells were then added to the plate (45 μL/well at a concentration of 280,000 cells/mL). IL17A/A (Genscript #Z03228) or IL17A/F (R&D Systems) was added to the plate to a final concentration of 5 ng/mL and a final well volume of 50 μL. The cells, compound, and IL-17A/A or IL17A/F were then incubated for 20 hours before media was removed for SEAP analysis. The resulting inhibition curve was then analyzed using Dotmatics' integrated 4-parameter fit screening protocol to generate IC50 values.
(§3) Table 2 includes IC50 values for IL-17A/A and IL-17A/F inhibition of selected compounds; with compounds having a IC50 of A<100 nM; B 100-1000 nM; and C>1000 nM.

IL-17A/F = molecular target: T2, IL-17A/F (Homo sapiens, UniProt Q16552+Q96PD4); experiment: IL-17A/F HEK-Blue cell assay (SEAP reporter); type: cell-based; conditions: HEK-Blue IL-17A reporter cells, IL17A/F 5 ng/mL, 20 hours, SEAP read at A630; read-out: HEK-Blue IL17AF (IC50 for IL-17A/F inhibition)
T2 construct: purchased R&D Systems
T2 sequence (Q16552 24-155): T1 sequence (Q16552 24-155)
T2 sequence (Q96PD4 31-163): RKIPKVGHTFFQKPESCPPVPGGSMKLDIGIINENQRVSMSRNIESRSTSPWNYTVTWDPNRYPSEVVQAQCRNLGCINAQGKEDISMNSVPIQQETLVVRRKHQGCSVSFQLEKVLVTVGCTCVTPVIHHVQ
Description: as §1, §2, §3

In the case of `CCn1nccc1C(=O)N[C@H](c1cn2nc(C[C@H]3C[C@@H](C(F)(F)F)CNC3=O)c(C3CCOC3)nc2n1)[C@@H]1CCCC(F)(F)C1` (single isomer, unassigned) [Compound 72], the pIC50 (IL-17A/A) was > 7.00 and the pIC50 (IL-17A/F) was 6.00 to 7.00.

`CCn1nccc1C(=O)N[C@H](c1cn2nc(C[C@H]3C[C@@H](C(F)(F)F)CNC3=O)c(C3CCOC3)nc2n1)[C@@H]1CCCC(F)(F)C1` (single isomer, unassigned) [Compound 73] was tested, and the pIC50 (IL-17A/A) was > 7.00 and the pIC50 (IL-17A/F) was 6.00 to 7.00.

With `O=C(N[C@H](c1cn2nc(C[C@H]3C[C@@H](C(F)(F)F)CNC3=O)cnc2n1)C1CCC(F)(F)CC1)c1nonc1[C@H]1CC1(F)F` (single isomer, unassigned) [Compound 76] the pIC50 (IL-17A/A) was 6.00 to 7.00 and the pIC50 (IL-17A/F) was < 6.00.

In the case of `O=C(N[C@H](c1cn2nc(C[C@H]3C[C@@H](C(F)(F)F)CNC3=O)cnc2n1)C1CCC(F)(F)CC1)c1nonc1[C@@H]1CC1(F)F` (single isomer, unassigned) [Compound 77], the pIC50 (IL-17A/A) was > 7.00 and the pIC50 (IL-17A/F) was < 6.00.

`CC(C)n1nccc1C(=O)N[C@H](c1cn2nc(CC3C[C@@H](C(F)(F)F)CNC3=O)c(N3CCOCC3)nc2n1)C1CCC(F)(F)CC1` (single isomer, unassigned) [Compound 79] was tested, and the pIC50 (IL-17A/A) was > 7.00 and the pIC50 (IL-17A/F) was 6.00 to 7.00.

`CC(C)n1nccc1C(=O)N[C@H](c1cn2nc(CC3C[C@@H](C(F)(F)F)CNC3=O)c(N3CCOCC3)nc2n1)C1CCC(F)(F)CC1` (single isomer, unassigned) [Compound 80] was tested, and the pIC50 (IL-17A/A) was > 7.00 and the pIC50 (IL-17A/F) was < 6.00.

In the case of `CCn1nccc1C(=O)N[C@H](c1cn2nc(CC3C[C@@H](C(F)(F)F)CNC3=O)c(N3CC4CC(C3)O4)nc2n1)C1CCC(F)(F)CC1` (single isomer, unassigned) [Compound 81], the pIC50 (IL-17A/A) was > 7.00 and the pIC50 (IL-17A/F) was 6.00 to 7.00.

With `CCn1nccc1C(=O)N[C@H](c1cn2nc(CC3C[C@@H](C(F)(F)F)CNC3=O)c(N3CC4CC(C3)O4)nc2n1)C1CCC(F)(F)CC1` (single isomer, unassigned) [Compound 82] the pIC50 (IL-17A/A) was > 7.00 and the pIC50 (IL-17A/F) was < 6.00.

For `CCn1nccc1C(=O)N[C@H](c1cn2nc(CC3C[C@@H](C(F)(F)F)CNC3=O)c(N3C[C@H]4CC[C@@H](C3)O4)nc2n1)C1CCC(F)(F)CC1` (single isomer, unassigned) [Compound 83], the pIC50 (IL-17A/A) was > 7.00 and the pIC50 (IL-17A/F) was 6.00 to 7.00.

`CCn1nccc1C(=O)N[C@H](c1cn2nc(CC3C[C@@H](C(F)(F)F)CNC3=O)c(N3C[C@H]4CC[C@@H](C3)O4)nc2n1)C1CCC(F)(F)CC1` (single isomer, unassigned) [Compound 84] was tested, and the pIC50 (IL-17A/A) was > 7.00 and the pIC50 (IL-17A/F) was 6.00 to 7.00.

`CCn1nccc1C(=O)N[C@H](c1cn2nc(CC3C[C@@H](C(F)(F)F)CNC3=O)c(N3C[C@H]4C[C@@H]3CO4)nc2n1)C1CCC(F)(F)CC1` (single isomer, unassigned) [Compound 85] was tested, and the pIC50 (IL-17A/A) was 6.00 to 7.00 and the pIC50 (IL-17A/F) was < 6.00.

For `CCn1nccc1C(=O)N[C@H](c1cn2nc(CC3C[C@@H](C(F)(F)F)CNC3=O)c(N3C[C@H]4C[C@@H]3CO4)nc2n1)C1CCC(F)(F)CC1` (single isomer, unassigned) [Compound 86], the pIC50 (IL-17A/A) was > 7.00 and the pIC50 (IL-17A/F) was 6.00 to 7.00.

With `CCn1nccc1C(=O)N[C@H](c1cn2nc(CC3C[C@@H](C(F)(F)F)CNC3=O)c(N3CCOCC3)nc2n1)[C@H]1CCCC(F)(F)C1` (single isomer, unassigned) [Compound 90] the pIC50 (IL-17A/A) was > 7.00 and the pIC50 (IL-17A/F) was 6.00 to 7.00.

With `CCn1nccc1C(=O)N[C@H](c1cn2nc(CC3C[C@@H](C(F)(F)F)CNC3=O)c(N3CCOCC3)nc2n1)[C@H]1CCCC(F)(F)C1` (single isomer, unassigned) [Compound 91] the pIC50 (IL-17A/A) was > 7.00 and the pIC50 (IL-17A/F) was 6.00 to 7.00.

For `CCn1nccc1C(=O)N[C@H](c1cn2nc(CC3C[C@@H](C(F)(F)F)CNC3=O)c(N3CC4CC(C3)O4)nc2n1)[C@H]1CCCC(F)(F)C1` (single isomer, unassigned) [Compound 92], the pIC50 (IL-17A/A) was > 7.00 and the pIC50 (IL-17A/F) was 6.00 to 7.00.

In the case of `CCn1nccc1C(=O)N[C@H](c1cn2nc(CC3C[C@@H](C(F)(F)F)CNC3=O)c(N3CC4CC(C3)O4)nc2n1)[C@H]1CCCC(F)(F)C1` (single isomer, unassigned) [Compound 93], the pIC50 (IL-17A/A) was > 7.00 and the pIC50 (IL-17A/F) was 6.00 to 7.00.
